Consider six molecules from paper PMC9090410 (Journal of Enzyme Inhibition and Medicinal Chemistry, 2022).

Experiment [1] deals with HDACs from HeLa cell lysates. Format: biochemical. To be noted: for IC50: HeLa cell extract, fluorometric assay, incubating for 8 h, standard deviation in parentheses, read-out: HeLa Cell Lysate IC50. Here is the method:
(§1) Once prepared, the compounds were screened for inhibition of HDAC activity from the cell lysates of HeLa cells and the recombinant isoforms HDAC3 and HDAC8. […]
(§2) then added followed by further incubation for 10 min at 25 °C. The enzyme activities was measured based on the fluorescence intensity at excitation 350-380 nm and emission 440-480 nm in a plate reader. A control set of data without the presence of inhibitor was acquired using 45 µL of buffer.
(§3) Inhibitors 1-7 were screened using a commercially available In Situ Histone Deacetylase Activity […]
(§4) divergence being the 8 hr incubation time.

Another experiment deals with T1, Recombinant HDAC 8 (Homo sapiens, UniProt Q9BY41).
T1 construct: purchased not specified (Fisher Scientific, Sigma-Aldrich or Chem-Impex are named for all reagents)
T1 sequence (Q9BY41 1-377): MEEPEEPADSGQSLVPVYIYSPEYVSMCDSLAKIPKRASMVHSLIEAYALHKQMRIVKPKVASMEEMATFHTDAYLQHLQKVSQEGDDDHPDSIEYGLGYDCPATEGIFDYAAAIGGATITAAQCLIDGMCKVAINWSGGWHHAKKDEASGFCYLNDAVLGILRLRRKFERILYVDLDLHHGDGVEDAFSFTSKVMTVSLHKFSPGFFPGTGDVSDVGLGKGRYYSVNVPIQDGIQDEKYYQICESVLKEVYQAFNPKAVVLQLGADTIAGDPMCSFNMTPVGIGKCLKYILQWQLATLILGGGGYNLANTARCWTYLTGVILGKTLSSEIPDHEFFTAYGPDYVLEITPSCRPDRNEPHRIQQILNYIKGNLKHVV
The experiment in a line: Recombinant HDAC8 inhibition, fluorometric assay, 8 h incubation. To be noted: for IC50: recombinant HDAC8, fluorometric assay, incubating for 8 h, standard deviation in parentheses. Format: biochemical. How it is done: as §1, §2, §3, §4

The next experiment addresses T2, Recombinant HDAC 3 (Homo sapiens, UniProt O15379).
T2 construct: purchased not specified (Fisher Scientific, Sigma-Aldrich or Chem-Impex are named for all reagents)
The experiment in a line: Recombinant HDAC3 inhibition, fluorometric assay, 8 h incubation. The experiment is classed as biochemical. As to conditions: for IC50: recombinant HDAC3, fluorometric assay, incubating for 8 h, standard deviation in parentheses. How it is done: as §1, §2, §3, §4

Another experiment has as its system HeLa cell lysates. To be noted: 10 h incubation time; ref Kapustin et al. (23); read-out: IC50 Hela cell lysate; cited from earlier work.
[2] abbreviates: time course enzyme inhibition assay, inhibitor at 100 μM.

As a reminder, the IC50 is the concentration needed to halve the response being measured.

T2 sequence (O15379 whole entry): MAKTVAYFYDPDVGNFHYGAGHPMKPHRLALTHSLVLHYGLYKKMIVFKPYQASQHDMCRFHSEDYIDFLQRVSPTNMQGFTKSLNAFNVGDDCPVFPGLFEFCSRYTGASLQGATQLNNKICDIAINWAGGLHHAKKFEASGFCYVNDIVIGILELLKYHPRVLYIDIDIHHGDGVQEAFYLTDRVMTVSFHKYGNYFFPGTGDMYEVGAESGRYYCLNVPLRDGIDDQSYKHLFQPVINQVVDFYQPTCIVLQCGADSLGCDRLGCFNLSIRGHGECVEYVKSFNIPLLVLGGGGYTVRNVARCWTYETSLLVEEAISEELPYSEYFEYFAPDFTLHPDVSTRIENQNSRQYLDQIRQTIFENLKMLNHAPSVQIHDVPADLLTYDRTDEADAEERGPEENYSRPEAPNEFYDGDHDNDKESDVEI
T2 sequence (Q9Y618 395-489 partner limits assumed): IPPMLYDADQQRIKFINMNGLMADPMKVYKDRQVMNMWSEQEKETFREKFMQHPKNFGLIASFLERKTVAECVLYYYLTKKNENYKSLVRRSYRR

Take `O=C(CCCCCNP(=O)(O)O)Nc1ccccc1` [Compound 2]: the IC50 worked out at 70 µM in experiment [1], 129 µM at Recombinant HDAC 8 and 240 µM at Recombinant HDAC 3. In addition, the “Incubation time of optimal inhibition, HeLa cell lysate” value in experiment [1] (setting [2]) is given as 8 h. Besides, at Recombinant HDAC 8 (setting [2]), the “Incubation time of optimal inhibition, HDAC 8” value amounted to 8 h. Also, the “Incubation time of optimal inhibition, HDAC 3” value at Recombinant HDAC 3 (setting [2]) was determined as 4 h.

As for `O=C(CCCCCOP(O)(O)=S)Nc1ccccc1` [Compound 7], the IC50 came to 50 µM in experiment [1], 49 µM on Recombinant HDAC 8 and 103 µM at Recombinant HDAC 3.

Regarding `O=C(CCCCCCOP(=O)(O)O)Nc1ccccc1` [Compound 6], the IC50 in experiment [1] is 3900 µM.

In the case of `O=C(CCCCOP(=O)(O)O)Nc1ccccc1` [Compound 4], the IC50 in experiment [1] worked out at 2200 µM.

Turning to `O=C(CCCCCOP(=O)(O)O)Nc1ccccc1` [Compound 5], the IC50 in experiment [1] was 60 µM; on Recombinant HDAC 8, 179 µM; on Recombinant HDAC 3, 690 µM.

With `CP(=O)(O)CCCCCC(=O)Nc1ccccc1` [PA3], the half-maximal inhibitory concentration (IC50) in the experiment on HeLa cell lysates is 6100 µM.
